Columns and labels:
Assay in all cases: relative viability (nuclei count vs DMSO), 5 days (fraction); higher = more cells survive
[1] = compound: C1=CC(=CC=C1NC(=S)NNC2=C(C=C(C=C2[N+](=O)[O-])C(F)(F)F)[N+](=O)[O-])F [Kobe2602] + CS(=O)(=O)CCNCc1ccc(-c2ccc3ncnc(Nc4ccc(OCc5cccc(F)c5)c(Cl)c4)c3c2)o1 [Lapatinib] (partner 2 µM)
Method in brief: (§1)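 Values are medians from duplicate plates. Each reflects relative viability, defined as the nuclei count of treated wells over that of vehicle wells. Lung cancer cell lines in 1536-well plates were pin-tool dosed one day after seeding with one drug alone or with a fixed anchor-drug dose plus five library-drug doses (not always all listed) in √10 steps, then fixed, stained and imaged at 4× after 5 days.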

[2] = compound: C1=CC(=CC=C1NC(=S)NNC2=C(C=C(C=C2[N+](=O)[O-])C(F)(F)F)[N+](=O)[O-])F [Kobe2602] + CCNC(=O)c1noc(-c2cc(C(C)C)c(O)cc2O)c1-c1ccc(CN2CCOCC2)cc1 [Luminespib] (partner 0.01 µM)
Method in brief: as §1

[3] = compound: C1=CC(=CC=C1NC(=S)NNC2=C(C=C(C=C2[N+](=O)[O-])C(F)(F)F)[N+](=O)[O-])F [Kobe2602] + NC(=O)Nc1cc(-c2cccc(F)c2)sc1C(=O)N[C@H]1CCCNC1 [AZD7762] (partner 0.2 µM)
Method in brief: as §1

[4] = compound: O[C@@H](COc1cccc2ncccc12)CN1CCN([C@@H]2c3ccccc3[C@@H]3[C@H](c4ccccc42)C3(F)F)CC1 [Zosuquidar] + CS(=O)(=O)N1CCN(Cc2cc3nc(-c4cccc5[nH]ncc45)nc(N4CCOCC4)c3s2)CC1 [Pictilisib] (partner 1 µM)
Method in brief: as §1

| Cell Line | relative viability ([1]; first compound 0.2 µM) | relative viability ([1]; first compound 0.6325 µM) | relative viability ([1]; first compound 2 µM) | relative viability ([1]; first compound 6.325 µM) | relative viability ([1]; first compound 20 µM) | relative viability ([2]; first compound 0.2 µM) | relative viability ([2]; first compound 0.6325 µM) | relative viability ([2]; first compound 2 µM) | relative viability ([2]; first compound 6.325 µM) | relative viability ([2]; first compound 20 µM) | relative viability ([3]; first compound 0.2 µM) | relative viability ([3]; first compound 0.6325 µM) | relative viability ([3]; first compound 2 µM) | relative viability ([3]; first compound 6.325 µM) | relative viability ([3]; first compound 20 µM) | relative viability ([4]; first compound 0.01 µM) | relative viability ([4]; first compound 0.03162 µM) | relative viability ([4]; first compound 0.1 µM) | relative viability ([4]; first compound 0.3162 µM) | relative viability ([4]; first compound 1 µM) |
| --- | --- | --- | --- | --- | --- | --- | --- | --- | --- | --- | --- | --- | --- | --- | --- | --- | --- | --- | --- | --- |
| NCI-H322M | 0.588 | 0.648 | 0.652 | 0.571 | 0.647 | 0.895 | 0.944 | 0.855 | 0.478 | 1.06 | 0.604 | 0.52 | 0.474 | 0.72 | 0.587 | 0.494 | 0.577 | 0.371 | 0.519 | 0.534 |
| NCI-H358 | 0.448 | 0.485 | 0.451 | 0.451 | 0.452 | 0.364 | 0.324 | 0.237 | 0.477 | 0.349 | 0.608 | 0.486 | 0.522 | 0.618 | 0.552 | 0.339 | 0.349 | 0.218 | 0.366 | 0.304 |
| LK-2 | 1.02 | 0.857 | 0.961 | 0.83 | 1.09 | 0.189 | 0.204 | 0.182 | 0.154 | 0.195 | 0.464 | 0.385 | 0.427 | 0.302 | 0.553 | 0.625 | 0.529 | 0.576 | 0.59 | 0.53 |
| NCI-H1755 | 1.01 | 1.03 | 0.951 | 1.02 | 1.09 | 0.334 | 0.425 | 0.414 | 0.395 | 0.322 | 0.416 | 0.446 | 0.642 | 0.407 | 0.544 | 0.415 | 0.452 | 0.318 | 0.497 | 0.484 |
| A-427 | 0.995 | 1.02 | 1.01 | 1.03 | 0.953 | 0.943 | 0.872 | 0.85 | 0.893 | 0.911 | 0.784 | 0.809 | 0.808 | 0.812 | 0.939 | 0.665 | 0.538 | 0.567 | 0.91 | 0.77 |
| PC-3 [JPC-3] | 0.488 | 0.457 | 0.434 | 0.477 | 0.495 | 0.746 | 0.799 | 0.713 | 0.748 | 0.649 | 0.872 | 0.913 | 0.603 | 0.823 | 0.835 | 0.768 | 0.539 | 0.664 | 0.677 | 0.738 |
| LOU-NH91 | 0.706 | 0.774 | 0.718 | 0.801 | 0.805 | 0.387 | 0.338 | 0.326 | 0.367 | 0.331 | 0.739 | 0.792 | 0.717 | 0.758 | 0.716 | 0.536 | 0.572 | 0.482 | 0.543 | 0.516 |
| BEN | 0.671 | 0.935 | 0.782 | 0.69 | 0.811 | 0.507 | 0.576 | 0.386 | 0.481 | 0.436 | 0.74 | 0.73 | 0.74 | 0.651 | 0.691 | 0.665 | 0.606 | 0.482 | 0.534 | 0.515 |
| NCI-H2085 | 0.749 | 0.751 | 0.779 | 0.776 | 0.879 | 0.393 | 0.466 |  | 0.478 | 0.436 | 0.931 | 1.01 | 0.986 | 0.87 | 0.943 | 0.446 | 0.543 | 0.441 | 0.474 | 0.478 |
| LC-2-ad | 1.03 | 0.893 | 0.764 | 0.978 | 0.923 | 1.01 | 1.15 | 0.908 | 1.12 | 1.06 | 0.822 | 0.879 | 0.85 | 0.833 | 0.828 | 0.386 | 0.566 | 0.41 | 0.493 | 0.524 |
| ABC-1 | 1.5 | 1.24 | 1.11 | 1.22 | 1.27 | 0.785 | 0.851 |  | 0.494 | 0.887 | 0.85 | 1 | 0.939 | 0.882 | 0.646 | 0.756 | 0.661 | 0.724 | 0.743 | 0.679 |
| NCI-H727 | 0.885 | 0.783 | 0.879 | 0.996 | 0.986 | 0.581 | 0.516 | 0.4 | 0.407 | 0.414 | 0.57 | 0.519 | 0.532 |  | 0.644 | 0.36 | 0.555 | 0.228 | 0.391 | 0.506 |
| NCI-H1792 | 0.963 | 0.878 | 0.992 | 0.928 | 0.978 | 0.319 | 0.58 | 0.47 | 0.558 | 0.517 | 0.553 | 0.792 | 0.593 | 0.578 | 0.769 | 0.355 | 0.267 | 0.243 | 0.311 | 0.335 |
| EPLC-272H | 1.05 | 0.956 | 0.916 | 0.853 | 1.01 | 0.259 | 0.83 | 0.327 | 0.363 | 0.27 | 0.349 | 0.212 | 0.187 | 0.24 | 0.282 | 0.308 | 0.344 | 0.311 | 0.272 | 0.35 |
| EKVX | 0.207 | 0.223 | 0.221 | 0.184 | 0.267 | 0.9 | 0.948 | 0.832 | 0.871 | 0.858 | 0.724 | 0.701 | 0.736 | 0.722 | 0.865 | 0.427 | 0.446 | 0.346 | 0.455 | 0.444 |
| NCI-H1666 | 0.639 | 0.659 |  | 0.468 | 0.592 | 0.975 | 1.08 | 1 | 1.05 | 1.08 | 0.804 | 0.804 | 0.903 | 0.812 | 0.891 | 0.458 | 0.491 | 0.52 | 0.517 | 0.274 |
